Reference: patent US11708348B2, “Protease inhibitors for treatment of coronavirus infections” (The Scripps Research Institute, priority 2021, dated 2023)

What follows are compounds tested on SARS-CoV-2 strain USA-WA1/2020 (assay: microbe, parasite or virus in culture). Conditions: Severe acute respiratory syndrome coronavirus 2, HeLa-ACE2, 24 h, HeLa-ACE2 cells, SARS-CoV-2 infection, 24 h; bound printed in cell; read-out: EC50, uM (Hela).
Assay type: cell-based

| Compound | EC50 [µM] |
| --- | --- |
| O=C1NCC[C@H]1C[C@H](NC(=O)[C@@H]1C[C@H]2C[C@H]2N1C(=O)[C@@H]1CCCO1)C(=O)COC(F)(F)F [Compound 304, (1R,3S,5R)-N-(3-oxo-1-((S)-2-oxopyrrolidin-3-yl)-4-(trifluoromethoxy)butan-2-yl)-2-((S)-tetrahydrofuran-2-carbonyl)-2-azabicyclo[3.1.0]-hexane-3-carboxamide] | > 1 |

Same assay, conditions: Severe acute respiratory syndrome coronavirus 2, HeLa-ACE2, 24 h, HeLa-ACE2 cells, SARS-CoV-2 infection, 24 h; class symbols; read-out: EC50, uM (Hela)

| Compound | EC50 [µM] |
| --- | --- |
| Cc1ccccc1NC(=O)C(=O)N[C@@H](Cc1ccccn1)C(=O)N[C@@H](C[C@@H]1CCNC1=O)C(=O)COc1c(F)c(F)cc(F)c1F [Compound 148, N1-((S)-1-oxo-1-(((S)-3-oxo-1-((S)-2-oxopyrrolidin-3-yl)-4-(2,3,5,6-tetrafluorophenoxy)butan-2-yl)amino)-3-(pyridin-2-yl)propan-2-yl)-N2-(o-tolyl)oxalamide] | 0.05 to 0.2 |
| O=C(Nc1ccccc1F)C(=O)N[C@@H](CCC1CCCCC1)C(=O)N[C@@H](C[C@@H]1CCNC1=O)C(=O)COc1c(F)c(F)cc(F)c1F [Compound 108, N1-((S)-4-cyclohexyl-1-oxo-1-(((S)-3-oxo-1-((S)-2-oxopyrrolidin-3-yl)-4-(2,3,5,6-tetrafluorophenoxy)butan-2-yl)amino)butan-2-yl)-N2-(2-fluorophenyl)oxalamide] | 0.2 to 0.5 |
| CC(C)C[C@H](NC(=O)C(=O)Nc1ccccc1C(C)(C)C)C(=O)N[C@@H](C[C@@H]1CCNC1=O)C(=O)COc1c(F)c(F)cc(F)c1F [Compound 33, N1-(2-(tert-butyl)phenyl)-N2-((S)-4-methyl-1-oxo-1-(((S)-3-oxo-1-((S)-2-oxopyrrolidin-3-yl)-4-(2,3,5,6-tetrafluorophenoxy)butan-2-yl)amino)pentan-2-yl)oxalamide] | < 0.05 |
| CC(C)(C)CC(O)C(=O)N1CC2(CC2)C[C@H]1C(=O)N[C@@H](C[C@@H]1CCNC1=O)C(=O)COC(F)(F)F (stereo partly drawn) [Compound 346, (6S)-5-(2-hydroxy-4,4-dimethylpentanoyl)-N-((S)-3-oxo-1-((S)-2-oxopyrrolidin-3-yl)-4-(trifluoromethoxy)butan-2-yl)-5-azaspiro[2.4]heptane-6-carboxamide] | < 0.05 |
| CC1(NC(=O)C(=O)N[C@@H](CC2CC2)C(=O)N[C@@H](C[C@@H]2CCNC2=O)C(=O)COC(F)(F)F)CCOCC1 [Compound 222, N1-((S)-3-cyclopropyl-1-oxo-1-(((S)-3-oxo-1-((S)-2-oxopyrrolidin-3-yl)-4-(trifluoromethoxy)butan-2-yl)amino)propan-2-yl)-N2-(4-methyltetrahydro-2H-pyran-4-yl)oxalamide] | 0.05 to 0.2 |
| CC[C@H](NC(=O)C1CC2(CC2)CO1)C(=O)N[C@@H](C[C@@H]1CCNC1=O)C(=O)COC(F)(F)F (stereo partly drawn) [Compound 294, N-((S)-1-oxo-1-(((S)-3-oxo-1-((S)-2-oxopyrrolidin-3-yl)-4-(trifluoromethoxy)butan-2-yl)amino)butan-2-yl)-5-oxaspiro[2.4]heptane-6-carboxamide] | < 0.05 |
| O=C(Nc1ccccc1)C(=O)N[C@@H](CC1CCCCC1)C(=O)N[C@@H](C[C@@H]1CCNC1=O)C(=O)COc1c(F)c(F)cc(F)c1F [Compound 35, N1-((S)-3-cyclohexyl-1-oxo-1-(((S)-3-oxo-1-((S)-2-oxopyrrolidin-3-yl)-4-(2,3,5,6-tetrafluorophenoxy)butan-2-yl)amino)propan-2-yl)-N2-phenyloxalamide] | < 0.05 |
| CC1(C)[C@@H]2[C@@H](C(=O)N[C@@H](C[C@@H]3CCNC3=O)C(=O)COC(F)(F)F)N(C(=O)C34CC(C(F)(F)F)(CO3)C4)C[C@@H]21 [Compound 318, (1R,2S,5S)-6,6-dimethyl-N-((S)-3-oxo-1-((S)-2-oxopyrrolidin-3-yl)-4-(trifluoromethoxy)butan-2-yl)-3-(4-(trifluoromethyl)-2-oxabicyclo[2.1.1]-hexane-1-carbonyl)-3-azabicyclo[3.1.0]-hexane-2-carboxamide] | 0.05 to 0.2 |
| CC(C)C[C@H](NC(=O)C(=O)NC1(CO)CC1)C(=O)N[C@@H](C[C@@H]1CCNC1=O)C(=O)COC(F)(F)F [Compound 231, Nl-(l-(hydroxymethyl)-cyclopropyl)-N2-((S)-4-methyl-1-oxo-1-(((S)-3-oxo-1-((S)-2-oxopyrrolidin-3-yl)-4-(trifluoromethoxy)butan-2-yl)amino)pentan-2-yl)oxalamide] | 0.5 to 1 |
| CC(C)C[C@H](NC(=O)[C@H](O)c1cccc(Cl)c1)C(=O)N[C@@H](C[C@@H]1CCNC1=O)C(=O)COc1c(F)c(F)cc(F)c1F [Compound 146, (S)-2-((R)-2-(3-chlorophenyl)-2-hydroxyacetamido)-4-methyl-N-((S)-3-oxo-1-((S)-2-oxopyrrolidin-3-yl)-4-(2,3,5,6-tetrafluorophenoxy)butan-2-yl)pentanamide] | 0.05 to 0.2 |

Same assay, conditions: Severe acute respiratory syndrome coronavirus 2, HeLa-ACE2, 24 h, HeLa-ACE2 cells, SARS-CoV-2 infection, 24 h; read-out: EC50, uM (Hela)

| Compound | EC50 [µM] |
| --- | --- |
| [2H]C([2H])([2H])C([2H])(C([2H])([2H])[2H])C([2H])([2H])C([2H])([2H])C(=O)N1CC2(CC2)C[C@H]1C(=O)N[C@@H](C[C@@H]1CCNC1=O)C(=O)COC(F)(F)F [Compound 734, (S)-5-(4-(methyl-d3)pentanoyl-2,2,3,3,4,5,5,5-d8)-N-((S)-3-oxo-1-((S)-2-oxopyrrolidin-3-yl)-4-(trifluoromethoxy)butan-2-yl)-5-azaspiro[2.4]heptane-6-carboxamide] | < 0.05 |
| O=C1NCC[C@H]1C[C@H](NC(=O)[C@@H]1[C@H]2CCC[C@H]2CN1C(=O)c1noc2ccc(F)cc12)C(=O)COC(F)(F)F [Compound 614, (1S,3aR,6aS)-2-(5-fluorobenzo[d]isoxazole-3-carbonyl)-N-((S)-3-oxo-1-((S)-2-oxopyrrolidin-3-yl)-4-(trifluoromethoxy)butan-2-yl)octahydrocyclopenta[c]pyrrole-1-carboxamide] | < 0.05 |
| CC1(NC(=O)C(=O)N2C[C@H]3[C@@H]([C@H]2C(=O)N[C@@H](C[C@@H]2CCNC2=O)C(=O)COC(F)(F)F)C3(C)C)CC1 [Compound 469, (1R,2S,5S)-6,6-dimethyl-3-(2-((l-methylcyclopropyl)-amino)-2-oxoacetyl)-N-((S)-3-oxo-1-((S)-2-oxopyrrolidin-3-yl)-4-(trifluoromethoxy)butan-2-yl)-3-azabicyclo[3.1.0]-hexane-2-carboxamide] | 0.05 to 0.2 |
| O=C1NCC[C@H]1C[C@H](NC(=O)[C@@H]1CC2(CC2)CN1C(=O)COCC(F)(F)F)C(=O)COC(F)(F)F [Compound 673, (S)-N-((S)-3-oxo-1-((S)-2-oxopyrrolidin-3-yl)-4-(trifluoromethoxy)butan-2-yl)-5-(2-(2,2,2-trifluoroethoxy)acetyl)-5-azaspiro[2.4]heptane-6-carboxamide] | 0.05 to 0.2 |
| O=C(NC1CC(F)(F)C1)C(=O)N1CC2(CC2)C[C@H]1C(=O)N[C@@H](C[C@@H]1CCNC1=O)C(=O)COC(F)(F)F [Compound 588, (S)-5-(2-((3,3-difluorocyclobutyl)-amino)-2-oxoacetyl)-N-((S)-3-oxo-1-((S)-2-oxopyrrolidin-3-yl)-4-(trifluoromethoxy)butan-2-yl)-5-azaspiro[2.4]-heptane-6-carboxamide] | 0.2 to 0.5 |
| O=C(C(=O)N1CC2(CC2)C[C@H]1C(=O)N[C@@H](C[C@@H]1CCNC1=O)C(=O)COC(F)(F)F)c1ccccc1 [Compound 674, (S)-N-((S)-3-oxo-1-((S)-2-oxopyrrolidin-3-yl)-4-(trifluoromethoxy)butan-2-yl)-5-(2-oxo-2-phenylacetyl)-5-azaspiro[2.4]heptane-6-carboxamide] | 0.05 to 0.2 |
| O=C(N[C@@H](C[C@@H]1CCNC1=O)C(=O)COC(F)(F)F)C1CCCCN1C(=O)[C@@H](O)c1ccccc1 (stereo partly drawn) [Compound 769, l-((S)-2-hydroxy-2-phenylacetyl)-N-((S)-3-oxo-1-((S)-2-oxopyrrolidin-3-yl)-4-(trifluoromethoxy)butan-2-yl)piperidine-2-carboxamide] | < 0.05 |
| CN1CCC[C@H]1C(=O)N1C[C@@H]2CCC[C@@H]2[C@H]1C(=O)N[C@@H](C[C@@H]1CCNC1=O)C(=O)COC(F)(F)F [Compound 440, (1S,3aR,6aS)-2-(methylprolyl)-N-((S)-3-oxo-1-((S)-2-oxopyrrolidin-3-yl)-4-(trifluoromethoxy)butan-2-yl)octahydrocyclo-penta[c]pyrrole-1-carboxamide] | 0.5 to 1 |
| CC(C)C[C@@H](NC(=O)OC(C)(C)C)C(=O)N1CC2(CC2)C[C@H]1C(=O)N[C@@H](C[C@@H]1CCNC1=O)C(=O)COC(F)(F)F [Compound 643, tert-butyl ((R)-4-methyl-1-oxo-1-((S)-6-(((S)-3-oxo-1-((S)-2-oxopyrrolidin-3-yl)-4-(trifluoromethoxy)butan-2-yl)carbamoyl)-5-azaspiro[2.4]heptan-5-yl)pentan-2-yl)carbamate] | < 0.05 |
| CC(C)C[C@H](O)C(=O)N[C@@H](C[C@@H]1CCNC1=O)C(=O)COC(F)(F)F [Compound 719, (S)-2-hydroxy-4-methyl-N-((S)-3-oxo-1-((S)-2-oxopyrrolidin-3-yl)-4-(trifluoromethoxy)butan-2-yl)pentanamide] | 0.5 to 1 |
| O=C1NCC[C@H]1C[C@H](NC(=O)[C@@H]1CC2(CC2)CN1C(=O)C1CCOCC1)C(=O)COC(F)(F)F [Compound 682, (S)-N-((S)-3-oxo-1-((S)-2-oxopyrrolidin-3-yl)-4-(trifluoromethoxy)butan-2-yl)-5-(tetrahydro-2H-pyran-4-carbonyl)-5-azaspiro[2.4]heptane-6-carboxamide] | 0.2 to 0.5 |
| CC(C)(F)c1cc(C(=O)N[C@@H](CC2CC2)C(=O)N[C@@H](C[C@@H]2CCNC2=O)C(=O)COC(F)(F)F)no1 [Compound 490, N-((S)-3-cyclopropyl-1-oxo-1-(((S)-3-oxo-1-((S)-2-oxopyrrolidin-3-yl)-4-(trifluoromethoxy)butan-2-yl)amino)propan-2-yl)-5-(2-fluoropropan-2-yl)isoxazole-3-carboxamide] | < 0.05 |
